{
  "source": "ChEMBL document CHEMBL4680228",
  "about": "(Eur J Med Chem, 2020)",
  "key": {"[1]": {"molecular_target": "von Hippel-Lindau disease tumor suppressor/Aurora kinase A (Homo sapiens) (UniProt O14965+P40337)", "sequence (O14965 whole entry, looked up)": "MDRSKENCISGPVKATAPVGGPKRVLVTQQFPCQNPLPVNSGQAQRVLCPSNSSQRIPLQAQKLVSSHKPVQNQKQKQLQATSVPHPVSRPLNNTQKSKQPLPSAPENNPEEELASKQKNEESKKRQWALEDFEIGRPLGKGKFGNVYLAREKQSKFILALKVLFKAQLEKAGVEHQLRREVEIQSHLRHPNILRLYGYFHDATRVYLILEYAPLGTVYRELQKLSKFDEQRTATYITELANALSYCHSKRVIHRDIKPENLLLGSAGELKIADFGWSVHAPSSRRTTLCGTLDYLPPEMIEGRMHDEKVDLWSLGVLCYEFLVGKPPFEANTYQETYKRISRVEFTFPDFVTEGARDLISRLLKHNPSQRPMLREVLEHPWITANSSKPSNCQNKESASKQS", "sequence (P40337 whole entry, looked up)": "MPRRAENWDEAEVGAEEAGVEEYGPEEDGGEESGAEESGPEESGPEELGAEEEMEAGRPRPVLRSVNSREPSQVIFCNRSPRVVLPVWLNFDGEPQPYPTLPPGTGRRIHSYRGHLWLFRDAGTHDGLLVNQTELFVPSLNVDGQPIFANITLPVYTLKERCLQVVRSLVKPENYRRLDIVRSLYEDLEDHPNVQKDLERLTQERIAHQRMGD", "experiment": "Protac activity at VHL/Aurora A in human SR cells assessed as induction of Aurora A degradation", "format": "cell-based"}, "[2]": {"molecular_target": "T1, von Hippel-Lindau disease tumor suppressor/ALK tyrosine kinase receptor/Nucleophosmin (Homo sapiens, UniProt Q9UM73+P06748+P40337)", "experiment": "Protac activity at VHL/NPM-ALK fusion protein in human SR cells assessed as reduction in ALK phosphorylation at 10 nM", "format": "cell-based"}, "cells": {"experiment": "cells", "details": "Homo sapiens, NCI-H1688", "description": "Antiproliferative activity against human NCI-H1688 cells assessed as inhibition of cell proliferation"}, "[3]": {"molecular_target": "von Hippel-Lindau disease tumor suppressor/Uridine-cytidine kinase 2 (Homo sapiens) (UniProt Q9BZX2+P40337)", "sequence (P40337 whole entry, looked up)": "as above", "sequence (Q9BZX2 whole entry, looked up)": "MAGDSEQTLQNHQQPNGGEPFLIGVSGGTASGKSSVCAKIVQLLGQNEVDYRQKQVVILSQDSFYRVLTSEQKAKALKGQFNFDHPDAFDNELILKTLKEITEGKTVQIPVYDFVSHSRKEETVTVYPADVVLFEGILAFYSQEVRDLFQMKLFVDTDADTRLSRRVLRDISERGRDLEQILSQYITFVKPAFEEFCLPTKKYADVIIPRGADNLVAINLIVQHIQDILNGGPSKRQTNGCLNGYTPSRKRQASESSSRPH", "experiment": "Protac activity at VHL/UCK2 in human SR cells assessed as induction of UCK2 degradation", "format": "cell-based"}, "[4]": {"molecular_target": "T1, von Hippel-Lindau disease tumor suppressor/ALK tyrosine kinase receptor/Nucleophosmin", "experiment": "Protac activity at VHL/NPM-ALK fusion protein in human SR cells assessed as degradation of ALK", "format": "cell-based"}, "[5]": {"molecular_target": "T1, von Hippel-Lindau disease tumor suppressor/ALK tyrosine kinase receptor/Nucleophosmin", "experiment": "Protac activity at VHL/NPM-ALK fusion protein in human SR cells assessed as degradation of ALK measured after 16 hrs in presence of proteasome inhibitor MG132", "format": "cell-based"}, "SR": {"tested_on": "SR", "experiment": "Antiproliferative activity against human SR cells assessed as reduction in cell growth", "format": "functional, cell-based"}, "[6]": {"molecular_target": "T1, von Hippel-Lindau disease tumor suppressor/ALK tyrosine kinase receptor/Nucleophosmin", "experiment": "Protac activity at VHL/NPM-ALK fusion protein in human SR cells assessed as reduction in STAT3 phosphorylation at 1 to 500 nM", "format": "cell-based", "details": "dose 1-500 nM"}, "NCI-H69": {"tested_on": "NCI-H69", "experiment": "Antiproliferative activity against human NCI-H69 cells assessed as inhibition of cell proliferation", "format": "functional, cell-based"}, "[7]": {"molecular_target": "von Hippel-Lindau disease tumor suppressor/Receptor-type tyrosine-protein kinase FLT3 (Homo sapiens) (UniProt P36888+P40337)", "sequence (P36888 27-993 limits assumed)": "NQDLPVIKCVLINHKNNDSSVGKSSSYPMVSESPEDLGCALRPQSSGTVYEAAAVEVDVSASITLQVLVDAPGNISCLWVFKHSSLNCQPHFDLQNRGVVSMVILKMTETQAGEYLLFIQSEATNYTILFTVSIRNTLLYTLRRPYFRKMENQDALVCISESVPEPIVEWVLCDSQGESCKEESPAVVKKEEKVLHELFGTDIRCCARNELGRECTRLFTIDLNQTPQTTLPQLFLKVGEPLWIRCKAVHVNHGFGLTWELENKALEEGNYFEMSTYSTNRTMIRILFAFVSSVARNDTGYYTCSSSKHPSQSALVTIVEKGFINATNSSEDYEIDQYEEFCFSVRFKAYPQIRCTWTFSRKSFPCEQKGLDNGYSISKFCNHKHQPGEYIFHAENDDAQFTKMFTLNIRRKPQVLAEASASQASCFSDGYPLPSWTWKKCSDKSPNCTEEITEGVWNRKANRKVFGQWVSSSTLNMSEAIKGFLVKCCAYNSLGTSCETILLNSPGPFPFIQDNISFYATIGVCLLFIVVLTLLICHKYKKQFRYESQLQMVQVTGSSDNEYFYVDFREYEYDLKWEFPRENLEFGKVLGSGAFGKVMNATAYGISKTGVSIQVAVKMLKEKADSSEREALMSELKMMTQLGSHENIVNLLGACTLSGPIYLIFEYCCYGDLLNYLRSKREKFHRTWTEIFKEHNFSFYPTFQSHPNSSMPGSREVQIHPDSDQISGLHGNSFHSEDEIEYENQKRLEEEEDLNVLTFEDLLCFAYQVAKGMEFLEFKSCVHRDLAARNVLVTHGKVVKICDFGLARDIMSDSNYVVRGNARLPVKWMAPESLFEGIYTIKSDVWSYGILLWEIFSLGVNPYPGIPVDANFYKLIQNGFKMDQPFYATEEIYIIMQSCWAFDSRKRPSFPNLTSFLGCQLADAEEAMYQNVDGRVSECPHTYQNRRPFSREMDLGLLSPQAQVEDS", "sequence (P40337 whole entry partner)": "as the sequence (P40337 whole entry, looked up) above", "experiment": "Protac activity at VHL/FLT3 in human SR cells assessed as induction of FLT3 degradation", "format": "cell-based"}, "[8]": {"molecular_target": "T1, von Hippel-Lindau disease tumor suppressor/ALK tyrosine kinase receptor/Nucleophosmin", "experiment": "Protac activity at VHL/NPM-ALK fusion protein in human SR cells assessed as degradation of ALK at 100 nM", "format": "cell-based", "details": "TDE = time-dependent effect"}, "[9]": {"molecular_target": "T1, von Hippel-Lindau disease tumor suppressor/ALK tyrosine kinase receptor/Nucleophosmin", "experiment": "Protac activity at VHL/NPM-ALK fusion protein in human SR cells assessed as degradation of ALK measured after 16 hrs in presence of proteasome inhibitor MLN4924", "format": "cell-based"}, "[10]": {"molecular_target": "von Hippel-Lindau disease tumor suppressor/ALK tyrosine kinase receptor/Echinoderm microtubule-associated protein-like 4 (Homo sapiens) (UniProt Q9UM73+Q9HC35+P40337)", "experiment": "Protac activity at VHL/EML4-ALK fusion protein in human NCI-H2228 cells assessed as induction of ALK degradation at 50 to 500 nM", "format": "cell-based", "details": "dose 50-500 nM"}, "NCI-H2228": {"tested_on": "NCI-H2228", "experiment": "Antiproliferative activity against human NCI-H2228 cells expressing EML4-ALK assessed as reduction in cell viability incubated for 72 hrs by CCK8 assay", "format": "functional, cell-based", "details": "NCI-H2228, 72 h"}, "[11]": {"molecular_target": "von Hippel-Lindau disease tumor suppressor/ALK tyrosine kinase receptor/Echinoderm microtubule-associated protein-like 4 (Homo sapiens, UniProt Q9UM73+Q9HC35+P40337, G1202R)", "sequence (P40337 whole entry, stated change not applied, the tested form may be a part)": "as the sequence (P40337 whole entry, looked up) above", "sequence (Q9HC35 whole entry, stated change not applied, the tested form may be a part)": "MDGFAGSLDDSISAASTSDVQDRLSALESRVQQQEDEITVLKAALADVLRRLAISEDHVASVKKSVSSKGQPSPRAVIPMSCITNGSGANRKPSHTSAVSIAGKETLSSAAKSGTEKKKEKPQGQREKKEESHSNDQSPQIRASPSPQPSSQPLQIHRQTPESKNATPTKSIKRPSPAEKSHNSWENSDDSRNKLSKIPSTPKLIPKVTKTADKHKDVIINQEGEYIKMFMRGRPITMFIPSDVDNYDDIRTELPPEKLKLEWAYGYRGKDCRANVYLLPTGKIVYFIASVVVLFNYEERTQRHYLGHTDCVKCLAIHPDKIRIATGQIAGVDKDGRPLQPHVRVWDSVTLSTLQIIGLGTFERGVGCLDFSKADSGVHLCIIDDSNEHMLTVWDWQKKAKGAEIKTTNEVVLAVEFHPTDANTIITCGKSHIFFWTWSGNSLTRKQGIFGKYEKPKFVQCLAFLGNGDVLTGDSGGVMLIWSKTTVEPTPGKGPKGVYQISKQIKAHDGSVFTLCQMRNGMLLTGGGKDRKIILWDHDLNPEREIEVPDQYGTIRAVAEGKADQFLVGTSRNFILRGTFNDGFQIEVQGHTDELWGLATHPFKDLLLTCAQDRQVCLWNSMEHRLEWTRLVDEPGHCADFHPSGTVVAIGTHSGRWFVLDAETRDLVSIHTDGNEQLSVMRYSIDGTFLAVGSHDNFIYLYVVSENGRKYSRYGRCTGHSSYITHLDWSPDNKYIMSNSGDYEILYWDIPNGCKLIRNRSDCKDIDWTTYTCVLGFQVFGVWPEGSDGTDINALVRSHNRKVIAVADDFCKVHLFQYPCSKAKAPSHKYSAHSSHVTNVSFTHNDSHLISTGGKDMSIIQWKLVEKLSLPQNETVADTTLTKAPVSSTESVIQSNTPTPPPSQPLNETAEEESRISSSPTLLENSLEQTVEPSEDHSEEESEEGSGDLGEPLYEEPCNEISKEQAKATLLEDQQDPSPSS", "sequence (Q9UM73 19-1620 G1202R limits assumed, stated change not applied)": "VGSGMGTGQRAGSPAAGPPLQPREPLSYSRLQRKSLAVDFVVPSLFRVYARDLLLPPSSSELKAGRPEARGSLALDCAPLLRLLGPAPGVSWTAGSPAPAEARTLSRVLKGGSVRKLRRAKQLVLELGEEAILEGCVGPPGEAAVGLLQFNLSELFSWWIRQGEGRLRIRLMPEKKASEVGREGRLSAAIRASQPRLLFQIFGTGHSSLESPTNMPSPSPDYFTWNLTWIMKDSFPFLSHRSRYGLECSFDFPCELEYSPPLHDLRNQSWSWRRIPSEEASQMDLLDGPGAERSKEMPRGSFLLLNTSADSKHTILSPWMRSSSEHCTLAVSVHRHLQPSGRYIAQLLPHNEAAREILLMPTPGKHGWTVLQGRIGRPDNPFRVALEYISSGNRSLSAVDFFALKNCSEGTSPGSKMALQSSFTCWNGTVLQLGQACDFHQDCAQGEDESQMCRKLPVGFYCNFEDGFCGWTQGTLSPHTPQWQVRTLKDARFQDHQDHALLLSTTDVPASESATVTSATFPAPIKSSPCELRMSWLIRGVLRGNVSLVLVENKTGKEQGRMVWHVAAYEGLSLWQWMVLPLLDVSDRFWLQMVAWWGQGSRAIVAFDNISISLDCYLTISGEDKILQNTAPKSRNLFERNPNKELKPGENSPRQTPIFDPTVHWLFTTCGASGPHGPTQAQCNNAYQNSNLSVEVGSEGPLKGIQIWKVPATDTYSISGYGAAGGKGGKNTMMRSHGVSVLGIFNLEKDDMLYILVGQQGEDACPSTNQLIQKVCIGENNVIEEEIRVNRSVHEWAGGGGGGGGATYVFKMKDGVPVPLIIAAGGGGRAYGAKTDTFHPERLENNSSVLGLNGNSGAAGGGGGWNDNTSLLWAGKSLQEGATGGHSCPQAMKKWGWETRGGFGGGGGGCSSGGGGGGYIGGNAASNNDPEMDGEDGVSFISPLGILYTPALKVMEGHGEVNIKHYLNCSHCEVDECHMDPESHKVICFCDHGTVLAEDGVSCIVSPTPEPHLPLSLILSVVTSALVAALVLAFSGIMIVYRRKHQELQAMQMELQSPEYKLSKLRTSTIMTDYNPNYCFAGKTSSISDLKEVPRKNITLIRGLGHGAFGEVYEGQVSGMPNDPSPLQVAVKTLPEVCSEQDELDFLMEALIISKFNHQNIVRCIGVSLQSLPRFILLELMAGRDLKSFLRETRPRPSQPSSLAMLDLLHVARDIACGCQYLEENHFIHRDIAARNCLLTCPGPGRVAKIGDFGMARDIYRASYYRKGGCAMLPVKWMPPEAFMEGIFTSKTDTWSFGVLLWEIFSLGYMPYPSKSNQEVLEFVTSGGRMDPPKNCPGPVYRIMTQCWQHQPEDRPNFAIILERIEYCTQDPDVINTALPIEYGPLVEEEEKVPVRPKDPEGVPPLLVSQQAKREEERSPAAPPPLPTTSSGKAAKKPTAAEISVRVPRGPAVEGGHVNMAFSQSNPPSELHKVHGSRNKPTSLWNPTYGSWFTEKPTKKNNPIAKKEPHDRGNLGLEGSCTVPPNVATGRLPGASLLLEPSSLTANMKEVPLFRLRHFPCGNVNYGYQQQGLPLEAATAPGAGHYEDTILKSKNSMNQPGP", "experiment": "Protac activity at VHL/EML4-ALK G1202R mutant fusion protein (unknown origin) expressed in HEK293T cells assessed as induction of ALK degradation by Western blot analysis", "format": "cell-based"}, "[12]": {"molecular_target": "von Hippel-Lindau disease tumor suppressor/Cyclin-G-associated kinase (Homo sapiens) (UniProt O14976+P40337)", "experiment": "Protac activity at VHL/GAK in human SR cells assessed as induction of GAK degradation", "format": "cell-based"}, "[13]": {"molecular_target": "von Hippel-Lindau disease tumor suppressor/Proto-oncogene tyrosine-protein kinase ROS (Homo sapiens) (UniProt P08922+P40337)", "experiment": "Protac activity at VHL/ROS1 in human SR cells assessed as induction of ROS1 degradation", "format": "cell-based"}, "[14]": {"molecular_target": "von Hippel-Lindau disease tumor suppressor/ALK tyrosine kinase receptor/Echinoderm microtubule-associated protein-like 4 (Homo sapiens, UniProt P40337+Q9HC35+Q9UM73, G1202R)", "sequence (P40337 whole entry, stated change not applied)": "as the sequence (P40337 whole entry, looked up) above", "sequence (Q9HC35 whole entry, stated change not applied)": "as the sequence (Q9HC35 whole entry, stated change not applied, the tested form may be a part) above", "sequence (Q9UM73 19-1620 G1202R limits assumed, stated change not applied)": "as the sequence (Q9UM73 19-1620 G1202R limits assumed, stated change not applied) above"}, "[15]": {"molecular_target": "T1, von Hippel-Lindau disease tumor suppressor/ALK tyrosine kinase receptor/Nucleophosmin", "experiment": "Protac activity at VHL/NPM-ALK fusion protein in human SR cells assessed as induction of ALK degradation 100 nM treated for 24 hrs followed by compound washout and measured after 24 to 48 hrs by Western blot analysis", "format": "cell-based"}, "[16]": {"molecular_target": "von Hippel-Lindau disease tumor suppressor/Insulin-like growth factor 1 receptor (Homo sapiens) (UniProt P08069+P40337)", "experiment": "Protac activity at VHL/IGF1R in human SR cells assessed as induction of IGF1R degradation", "format": "cell-based"}, "EML4-ALK": {"molecular_target": "EML4-ALK (Homo sapiens, UniProt Q9UM73, G1202R)", "sequence (Q9UM73 19-1620 G1202R limits assumed)": "as the sequence (Q9UM73 19-1620 G1202R limits assumed, stated change not applied) above", "experiment": "Inhibition of EML4-ALK G1202R mutant fusion protein (unknown origin) expressed in HEK293T cells", "format": "cell-based"}, "[17]": {"molecular_target": "T1, von Hippel-Lindau disease tumor suppressor/ALK tyrosine kinase receptor/Nucleophosmin", "experiment": "Protac activity at VHL/NPM-ALK fusion protein in human SR cells assessed as reduction in ALK phosphorylation at 50 nM", "format": "cell-based", "parameters": "scale not given: the % may be the effect or the level left"}, "[18]": {"molecular_target": "T1, von Hippel-Lindau disease tumor suppressor/ALK tyrosine kinase receptor/Nucleophosmin", "experiment": "Protac activity at VHL/NPM-ALK fusion protein in human SR cells assessed as degradation of ALK at 100 nM measured after 24 hrs", "format": "cell-based"}},
  "note": "The source made the active and inactive calls. The rule behind the calls is not given here.",
  "data": [
    {"molecule": "COc1cc(N2CCC(NC(=O)CCCCCCCCCC(=O)N[C@H](C(=O)N3C[C@H](O)C[C@H]3C(=O)NCc3ccc(-c4scnc4C)cc3)C(C)(C)C)CC2)ccc1Nc1ncc(Cl)c(Nc2ccccc2P(C)(C)=O)n1", "values": [
      {"measurement": "Activity", "setting": "[1]", "result": "inactive"},
      {"measurement": "Activity", "setting": "[2]", "result": "Active"},
      {"measurement": "IC50", "setting": "cells", "result": 259, "unit": "nM"},
      {"measurement": "Activity", "setting": "[3]", "result": "inactive"},
      {"measurement": "DC50", "setting": "[4]", "result": 7, "unit": "nM"},
      {"measurement": "Activity", "setting": "[5]", "result": "inactive"},
      {"measurement": "IC50", "setting": "SR", "result": 1.7, "unit": "nM"},
      {"measurement": "Activity", "setting": "[6]", "result": "Active"},
      {"measurement": "IC50", "setting": "NCI-H69", "result": 799, "unit": "nM"},
      {"measurement": "Activity", "setting": "[7]", "result": "inactive"},
      {"measurement": "Activity", "setting": "[8]", "result": "Tde"},
      {"measurement": "Activity", "setting": "[9]", "result": "inactive"},
      {"measurement": "Activity", "setting": "[10]", "result": "Active"},
      {"measurement": "IC50", "setting": "NCI-H2228", "result": 46, "unit": "nM"},
      {"measurement": "DC50", "setting": "[11]", "result": "< 200", "unit": "nM"},
      {"measurement": "Activity", "setting": "[12]", "result": "inactive"},
      {"measurement": "Activity", "setting": "[13]", "result": "inactive"},
      {"measurement": "IC50", "setting": "[14]", "result": 166, "unit": "nM"},
      {"measurement": "Activity", "setting": "[15]", "result": "Active"},
      {"measurement": "Activity", "setting": "[16]", "result": "inactive"},
      {"measurement": "IC50", "setting": "EML4-ALK", "result": 146, "unit": "nM"}
    ]},
    {"molecule": "COc1cc(N2CCC(NC(=O)CCCCCCCCCC(=O)N[C@H](C(=O)N3C[C@@H](O)C[C@H]3C(=O)NCc3ccc(-c4scnc4C)cc3)C(C)(C)C)CC2)ccc1Nc1ncc(Cl)c(Nc2ccccc2P(C)(C)=O)n1", "values": [
      {"measurement": "IC50", "setting": "SR", "result": 5.5, "unit": "nM"},
      {"measurement": "Activity", "setting": "[6]", "result": "Active"},
      {"measurement": "IC50", "setting": "NCI-H2228", "result": 114, "unit": "nM"},
      {"measurement": "Activity", "setting": "[17]", "result": 100, "unit": "%"},
      {"measurement": "IC50", "setting": "[14]", "result": 608, "unit": "nM"},
      {"measurement": "Activity", "setting": "[18]", "result": "inactive"}
    ]}
  ]
}
